These results are taken from PMC12011786, “Pharmacokinetics and stability of methoxyflavones from Kaempferia parviflora in Thai native roosters” (Frontiers in Veterinary Science, 2025).

Where two headings read alike, the source gives them in different places.

A short description of the data set: Pharmacokinetics of methoxyflavones after single oral administration of KP ethanolic extract in roosters. In kind it is in vivo, Thai native roosters (Pradu Hang Dum breed). The note with it: for AUC / Cmax / Tmax / half-life / k el: male, Thai native Pradu Hang Dum, whole blood; for AUC: po; for Cmax / Tmax / half-life / Cl / Vd: n = 9; for k el: n = 9, read-out: Ke (converted). The method, then:
Twenty-seven male Thai native Pradu Hang Dum breed roosters were selected for this study. The sample size was calculated by using the G*power program with the following parameters: α = 0.05, power of test = 0.8, standard deviation = 0.05, and effect size = 0.6. The sample size was nine in each group. […] All animals were obtained from the Research and Development Network Center of Animal Breeding and Omics at Khon Kaen University, Thailand. The roosters were housed in separate cages (60 × 45 × 45 cm) within an open-house system. They were fed a daily commercial diet of 130 g, containing 16% crude protein. Water was provided ad libitum throughout the study.
Blood samples (1 mL) were collected from the brachial vein of each rooster after gentle restraint. The collected blood was immediately transferred into a 1.5 mL microtube containing 10% heparin and gently inverted several times to ensure thorough mixing and prevent clot formation.
The roosters were randomly divided into three groups (n = 9 per group) and orally administered KP extract at different doses: 100, 150, and 200 mg/kg of body weight. The KP extract was prepared by dissolving in a solution of 28% propylene glycol, 35% polyethylene glycol 400, 2% ethanol, and deionized water (added until the total volume was 100%). For the method of animal administration, two individuals administered the KP extract to the chickens. One person restrained each chicken by holding its wings and legs, while the other administered the extract orally via a 10 mL syringe, according to body weight.
After oral administration, blood samples were collected at certain time intervals (0.5, 1, 2, 4, 6, and 12 h). The samples were then stored at −20°C until further analysis.
To extract methoxyflavones from the blood samples, all samples were extracted by liquid–liquid extraction two times using acetonitrile. Each sample was vortexed for 2 min and sonicated for 5 min with 1 mL of acetonitrile. After centrifugation at 2,000 × g for 2 min, the supernatant was transferred to clean microtubes, evaporated to dryness, and reconstituted with 200 μL of methanol. The samples were then filtered through 0.45-μm syringe filters and analyzed using an HPLC assay. Pharmacokinetic parameters were determined using the PKSolver add-in program ([21]).

[1] abbreviates: 100 mg/kg, single oral KP extract 100 mg/kg, blood, n = 9, read-out: AUC.
Where [2] appears, read: 150 mg/kg, single oral KP extract 150 mg/kg, blood, n = 9, read-out: AUC.
[3] abbreviates: 200 mg/kg, range over oral KP extract doses 100, 150, 200 mg/kg, read-out: area under the curve (AUC).
Where [4] appears, read: 200 mg/kg, single oral KP extract 200 mg/kg, blood, n = 9, read-out: AUC.
[5] abbreviates: single oral KP extract 100 mg/kg, blood.
[6] abbreviates: single oral KP extract 150 mg/kg, blood.
Where [7] appears, read: single oral KP extract 200 mg/kg, blood.

`COc1cc(OC)c2c(=O)c(OC)c(-c3ccc(OC)c(OC)c3)oc2c1` [PMF, 3,5,7,3′,4′-pentamethoxyflavone]: under setting [1], the area under the curve (AUC) was 2620 ± 340 ng·h/mL. Further, the AUC under setting [2] was determined as 3010 ± 420 ng·h/mL. Further, under setting [3], the exposure (AUC) lay in the range of 2620 to 3060 ng·h/mL. The AUC under setting [4] was 3060 ± 570 ng·h/mL. Under setting [5], the Cmax came to 640 ± 60 ng/mL, the Tmax amounted to 1.83 ± 0.37 h, the half-life was 2.03 ± 0.34 h and the k el was 9.72e-05 s⁻¹. Under setting [5], this molecule registered a Cl of 41 ± 7 mL/min/kg and a Vd of 7.78 ± 0.63 L/kg. Also, under setting [6], the Cmax worked out at 810 ± 120 ng/mL, the Tmax stood at 1.8 ± 0.4 h, the half-life is 2.24 ± 0.71 h and the k el was 0.000111 s⁻¹. Under setting [6], this molecule registered a Cl of 47.2 ± 12.7 mL/min/kg and a Vd of 8.24 ± 1.14 L/kg. For the same molecule, under setting [7], the Cmax worked out at 830 ± 110 ng/mL, the Tmax amounted to 1.83 ± 0.37 h, the half-life was 2.27 ± 0.93 h and the k el is 0.000114 s⁻¹. Under setting [7], this molecule returned a Cl of 53.7 ± 8.67 mL/min/kg and a Vd of 8.69 ± 1.25 L/kg.
With `COc1ccc(-c2cc(=O)c3c(OC)cc(OC)cc3o2)cc1` [TMF, 5,7,4′-trimethoxyflavone], the AUC under setting [1] is 1200 ± 150 ng·h/mL. The AUC under setting [2] stood at 1360 ± 150 ng·h/mL. The AUC under setting [3] is 1200 to 1450 ng·h/mL. In addition, the AUC under setting [4] was found to be 1450 ± 120 ng·h/mL. Further, under setting [5], the highest level (Cmax) was 380 ± 90 ng/mL, the Tmax came to 1.25 ± 0.56 h, the half-life is 2.15 ± 0.71 h and the k el is 8.33e-05 s⁻¹. Under setting [5], this molecule displayed a Cl of 76.3 ± 9.83 mL/min/kg and a Vd of 17.8 ± 5.61 L/kg. Besides, under setting [6], the highest level (Cmax) was 530 ± 60 ng/mL, the Tmax is 1.25 ± 0.4 h, the half-life was 2.01 ± 0.31 h and the k el is 9.44e-05 s⁻¹. Under setting [6], this molecule registered a Cl of 97.3 ± 11.2 mL/min/kg and a Vd of 20 ± 3.32 L/kg. In addition, under setting [7], the concentration peaked (Cmax) at 590 ± 60 ng/mL, the Tmax came to 1.33 ± 0.47 h, the half-life is 2.03 ± 0.37 h and the k el is 0.000103 s⁻¹. Moreover, under setting [7], the Cl stood at 82.5 ± 26.3 mL/min/kg and the Vd came to 12.7 ± 1.73 L/kg.
As for `COc1cc(OC)c2c(=O)cc(-c3ccccc3)oc2c1` [DMF, 5,7-dimethoxyflavone], the AUC runs as follows: under setting [1], 1020 ± 230 ng·h/mL; under setting [2], 1450 ± 170 ng·h/mL; under setting [3], 1020 to 1680 ng·h/mL; under setting [4], 1680 ± 570 ng·h/mL. Also, the Cmax is, setting by setting: under setting [5], 340 ± 100 ng/mL; under setting [6], 500 ± 50 ng/mL; under setting [7], 540 ± 80 ng/mL. Besides, the Tmax is, setting by setting: under setting [5], 1.17 ± 0.37 h; under setting [6], 1.33 ± 0.49 h; under setting [7], 1.17 ± 0.37 h. Further, the half-life is, setting by setting: under setting [5], 2.56 ± 0.49 h; under setting [6], 2.57 ± 0.2 h; under setting [7], 2.6 ± 0.28 h. Besides, the k el by setting is: under setting [5], 7.78e-05 s⁻¹; under setting [6], 8.33e-05 s⁻¹; under setting [7], 9.17e-05 s⁻¹. In addition, the Cl by setting is: under setting [5], 137 ± 29.7 mL/min/kg; under setting [6], 120 ± 27.7 mL/min/kg; under setting [7], 123 ± 36.8 mL/min/kg. Moreover, the Vd is, setting by setting: under setting [5], 18.9 ± 1.78 L/kg; under setting [6], 19.1 ± 1.78 L/kg; under setting [7], 19.5 ± 2.28 L/kg.
